Data reported in US8158628B2, “Sulfonylated 1,2,3,4-tetrahydropyrrolo[1,2-a]pyrazine compounds and their use as pharmaceuticals” (Gruenenthal GmbH, priority 2009, dated 2012).

Experiments:
B1R of the rat = target: T1, B1R of the rat (Rattus norvegicus, UniProt P97583); assay: FLIPR Ca2+ functional assay, B1R antagonism, rat B1R in CHO K1 cells; assay type: cell-based; settings: test substance 10 μM; rB1R CHO K1 cells; agonist Des-Arg9 bradykinin at EC80; % of maximum achievable inhibition
T1 construct: expressed in transfected cells; host or cells: CHO K1 cells (Chinese hamster ovary), stably transfected
T1 sequence (P97583 1-337): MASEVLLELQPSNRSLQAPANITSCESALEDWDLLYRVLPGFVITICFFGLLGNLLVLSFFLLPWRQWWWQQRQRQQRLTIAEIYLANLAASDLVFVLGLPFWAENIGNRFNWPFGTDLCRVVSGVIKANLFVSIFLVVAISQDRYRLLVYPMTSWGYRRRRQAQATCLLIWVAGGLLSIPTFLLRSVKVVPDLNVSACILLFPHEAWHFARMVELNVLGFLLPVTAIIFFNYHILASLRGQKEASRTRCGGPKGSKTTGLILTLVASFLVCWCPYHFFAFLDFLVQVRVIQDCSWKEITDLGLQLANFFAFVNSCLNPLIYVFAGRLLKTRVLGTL
Method in brief: (§1)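 Stably transfected CHO K1 cells loaded with Fluo-4; Ca2+ fluorescence read on FLIPR (ex 488/em 540 nm). Compound preincubated 10-20 min, then agonist at EC80: Lys-Des-Arg9 bradykinin (human) or Des-Arg9 bradykinin (rat). % inhibition vs maximal inhibition; IC50 from concentration series, n=2-3, N>=2.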

human B1R = target: T2, human B1R (Homo sapiens, UniProt P46663); assay: FLIPR Ca2+ functional assay, B1R antagonism, human B1R in CHO K1 cells; assay type: cell-based; settings: test substance 10 μM; hB1R CHO K1 cells; agonist Lys-Des-Arg9 bradykinin at EC80; % of maximum achievable inhibition
T2 construct: expressed in transfected cells; host or cells: CHO K1 cells (Chinese hamster ovary), stably transfected
T2 sequence (P46663 1-353): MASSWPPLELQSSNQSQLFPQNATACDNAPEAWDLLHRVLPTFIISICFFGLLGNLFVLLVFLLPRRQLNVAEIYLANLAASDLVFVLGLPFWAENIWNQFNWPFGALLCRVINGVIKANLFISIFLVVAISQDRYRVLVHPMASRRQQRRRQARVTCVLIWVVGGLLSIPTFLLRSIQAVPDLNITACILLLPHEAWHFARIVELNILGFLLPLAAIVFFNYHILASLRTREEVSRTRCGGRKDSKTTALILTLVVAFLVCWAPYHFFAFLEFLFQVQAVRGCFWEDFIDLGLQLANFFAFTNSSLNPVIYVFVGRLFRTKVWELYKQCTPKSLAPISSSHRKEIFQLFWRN
Method in brief: as §1

inhibition at 10 µM (B1R of the rat) [%] | inhibition at 10 µM (human B1R) [%] | SMILES
97.1 | 99.8 | CN(Cc1ccc2c(c1)CCCC2NC(=O)CC1c2cccn2CCN1S(=O)(=O)c1cccc(C(F)(F)F)c1)C(C)(C)C (stereo not drawn) [Example 113, N-[6-[(tert-Butyl-methyl-amino)-methyl]-1,2,3,4-tetrahydro-naphthalen-1-yl]-2-[2-[[3-(trifluoromethyl)phenyl]sulfonyl]-1,2,3,4-tetrahydro-pyrrolo[1,2-a]pyrazin-1-yl]-acetamide]
99.6 | 100 | COc1ccc2cc(S(=O)(=O)N3CCn4cccc4C3CC(=O)NC3CCCc4cc(CNC(C)(C)C)ccc43)ccc2c1 (stereo not drawn) [Example 114, N-[6-[(tert-Butylamino)-methyl]-1,2,3,4-tetrahydro-naphthalen-1-yl]-2-[2-[(6-methoxy-naphthalen-2-yl)sulfonyl]-1,2,3,4-tetrahydro-pyrrolo[1,2-a]pyrazin-1-yl]-acetamide]
102 | 99.8 | Cc1ccc(S(=O)(=O)N2CCn3cccc3C2CC(=O)NC2CCc3cc(CN(C)C)ccc3C2)cc1Cl (stereo not drawn) [Example 115, 2-[2-[(3-Chloro-4-methyl-phenyl)sulfonyl]-1,2,3,4-tetrahydro-pyrrolo[1,2-a]pyrazin-1-yl]-N-[6-(dimethylaminomethyl)-1,2,3,4-tetrahydro-naphthalen-2-yl]-acetamide]
102 | 99.8 | CN(Cc1ccc2c(c1)CCC(NC(=O)CC1c3cccn3CCN1S(=O)(=O)c1cccc(C(F)(F)F)c1)C2)C(C)(C)C (stereo not drawn) [Example 116, N-[6-[(tert-Butyl-methyl-amino)-methyl]-1,2,3,4-tetrahydro-naphthalen-2-yl]-2-[2-[[3-(trifluoromethyl)phenyl]sulfonyl]-1,2,3,4-tetrahydro-pyrrolo[1,2-a]pyrazin-1-yl]-acetamide]
98.8 | 100 | COc1ccc2cc(S(=O)(=O)N3CCn4cccc4C3CC(=O)NC3CCCc4cc(CN5CCN(C)CC5)ccc43)ccc2c1 (stereo not drawn) [Example 117, 2-[2-[(6-Methoxy-naphthalen-2-yl)sulfonyl]-1,2,3,4-tetrahydro-pyrrolo[1,2-a]pyrazin-1-yl]-N-[6-[(4-methyl-piperazin-1-yl)-methyl]-1,2,3,4-tetrahydro-naphthalen-1-yl]-acetamide]
102 | 100 | COc1ccc2cc(S(=O)(=O)N3CCn4cccc4C3CC(=O)NC3CCc4cc(CN5CCOCC5)ccc4C3)ccc2c1 (stereo not drawn) [Example 118, 2-[2-[(6-Methoxy-naphthalen-2-yl)sulfonyl]-1,2,3,4-tetrahydro-pyrrolo[1,2-a]pyrazin-1-yl]-N-[6-(morpholin-4-yl-methyl)-1,2,3,4-tetrahydro-naphthalen-2-yl]-acetamide]
62.2 | 23.4 | Cc1ccc(S(=O)(=O)N2CCn3cccc3C2CC(=O)NC2CCCc3cc(CN4CCCc5ccccc54)ccc32)cc1Cl (stereo not drawn) [Example 119, 2-[2-[(3-Chloro-4-methyl-phenyl)sulfonyl]-1,2,3,4-tetrahydro-pyrrolo[1,2-a]pyrazin-1-yl]-N-[6-(1,2,3,4-tetrahydro-quinolin-1-yl-methyl)-1,2,3,4-tetrahydro-naphthalen-1-yl]-acetamide]
102 | 97.8 | COc1ccc2cc(S(=O)(=O)N3CCn4cccc4C3CC(=O)NC3CCCc4cc(CN5CCOCC5)ccc43)ccc2c1 (stereo not drawn) [Example 120, 2-[2-[(6-Methoxy-naphthalen-2-yl)sulfonyl]-1,2,3,4-tetrahydro-pyrrolo[1,2-a]pyrazin-1-yl]-N-[6-(morpholin-4-yl-methyl)-1,2,3,4-tetrahydro-naphthalen-1-yl]-acetamide]
99.5 | 99.9 | CCC(C)NCc1ccc2c(c1)CCC(NC(=O)CC1c3cccn3CCN1S(=O)(=O)c1ccc3cc(OC)ccc3c1)C2 (stereo not drawn) [Example 121, 2-[2-[(6-Methoxy-naphthalen-2-yl)sulfonyl]-1,2,3,4-tetrahydro-pyrrolo[1,2-a]pyrazin-1-yl]-N-[6-[(1-methyl-propylamino)-methyl]-1,2,3,4-tetrahydro-naphthalen-2-yl]-acetamide]
